Source: US20060177888A1, “Method for evaluating antioxidation capability of organism sample” (Chugai Seiyaku Kabushiki Kaisha, priority 2003, published 2006)

Experiments:
[1] = tested on: cholesterol esters contained in plasma samples; assay: Amounts of CEOOHs and CEOHs produced in AAPH-initiated oxidation of plasma samples with added antioxidant; type: biochemical; conditions: antioxidant added to human plasma at various concentrations five minutes before AAPH (10 mM), 37° C., 8 hours; endogenous α-tocopherol present; FIG. 4
Description: Assay reproducibility was tested for oxidation products of cholesterol esters contained in plasma samples obtained from a normal human subject. In this test, the cholesterol esters were regarded as oxidizable substrates.
Blood was collected in heparin from one normal human subject who gave informed consent to prepare a plasma pool.
1.1 mL portions of this plasma sample were put into nine test tubes and were frozen-stored at −80° C.
Three test tubes A, B and C containing the frozen plasma were warmed to 37° C. for 5 minutes to thaw the frozen plasma. After thawing, the test tubes were kept in ice.
10 μL of an aqueous solution of AAPH (available from Wako Pure Chemical Industries, Ltd.; Lot No. DWF 1183) was added to 300 μL of plasma removed from each test tube at an AAPH concentration of 10 mM. Then, they were warmed to 37° C. to initiate an oxidation reaction.
After maintaining at 37° C. for 8 hours, the 3 vessels each containing the reaction solution were immersed in ice to stop the reaction. 1 mL of a methanol containing 0.02% acetic acid and 5 mL of hexane were added to 100 μL of each reaction solution to extract lipids. 4 mL of the hexane extract removed from each reaction solution was concentrated on Speed Vac (AES1010 available from Thermo Savant), and each concentrate was dissolved in 200 μL of isopropyl alcohol. […]

[2] = reported in literature (Gotoh 1992; Noguchi 1997); cited from earlier work

| SMILES | amounts of CEOOHs and CEOHs produced with the increase of the concentration of the antioxidant [1] | rate of the reaction with linoleic acid peroxy radicals, expressed as ratio to the rate of the reaction of α-tocopherol [2] |
| --- | --- | --- |
| CCCCCC1(CCCCC)Cc2c(cc(C(C)(C)C)c(O)c2C(C)(C)C)O1 [BO-653, 4,6-di-t-butyl-5-hydroxy-2,2-di-n-pentyl-2,3-dihydrobenzofuran] | significantly decrease | 1/2 |
| Cc1c(C)c2c(c(C)c1O)CC[C@@](C)(CCC[C@H](C)CCC[C@H](C)CCCC(C)C)O2 [α-tocopherol] | significantly increase |  |
